This test has as its target T1, phosphatase ABI1 via the co-regulator RCAR11/PYR1 (Arabidopsis thaliana, UniProt O49686+P49597).
T1 sequence (O49686 1-191): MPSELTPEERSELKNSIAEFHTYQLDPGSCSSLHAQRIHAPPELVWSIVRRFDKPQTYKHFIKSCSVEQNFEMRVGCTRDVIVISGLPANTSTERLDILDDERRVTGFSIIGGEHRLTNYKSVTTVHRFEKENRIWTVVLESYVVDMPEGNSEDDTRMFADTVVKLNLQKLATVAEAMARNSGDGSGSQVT
T1 sequence (P49597 1-434): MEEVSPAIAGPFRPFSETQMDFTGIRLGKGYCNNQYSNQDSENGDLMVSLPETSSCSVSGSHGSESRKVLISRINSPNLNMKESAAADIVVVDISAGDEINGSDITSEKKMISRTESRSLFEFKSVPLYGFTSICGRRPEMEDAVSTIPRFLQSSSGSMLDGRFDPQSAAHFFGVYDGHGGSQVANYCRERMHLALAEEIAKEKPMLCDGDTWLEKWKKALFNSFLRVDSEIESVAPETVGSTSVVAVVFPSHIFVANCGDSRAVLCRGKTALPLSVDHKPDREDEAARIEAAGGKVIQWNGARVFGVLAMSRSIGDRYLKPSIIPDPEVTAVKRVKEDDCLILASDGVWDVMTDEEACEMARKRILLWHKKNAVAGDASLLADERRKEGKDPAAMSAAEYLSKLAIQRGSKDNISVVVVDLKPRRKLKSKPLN
The experiment in a line: In vitro inhibition of the phosphatase ABI1 via the co-regulator RCAR11/PYR1, MUP dephosphorylation. Format: biochemical. Details: dose or concentration left out as unconfirmed. The following applies: in a solution of DMSO and water; fluorescence at 460 nm. The method in brief: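 Arabidopsis ABI1 (0.15 μg/well) with RCAR11/PYR1 (0.30 μg/well) in Tris-HCl pH 8, NaCl, MnCl2, DTT, Tween20; MUP substrate, 20 min at 35 °C, fluorescence ex 340/em 460 nm. Compounds tested at 5 mM in DMSO/water, optionally pre-treated with porcine liver esterase; inhibition banded ≥90/70/50/30%.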

Regarding `COC(=O)CCN1C(=O)CCc2cc(NS(=O)(=O)Cc3ccc(F)cc3)ccc21` [A51-158], the ABI1 inhibition entry is “+++ (90%>inhibition≧70%)”.

The values are drawn from patent publication US20170027172A1, “USE OF SUBSTITUTE OXO TETRAHYDROQUINOLINE SULFONAMIDES OR SALTS THEREOF FOR RAISING STRESS TOLERANCE OF PLANTS” (BAYER CROPSCIENCE AKTIENGESELLSCHAFT, priority 2014, published 2017).
